Experimental data taken from patent US20240041830A1, “CIRCULATING BIOMARKERS OF RESPONSE TO PD-1/PD-L1 BLOCKADE AND GSK-3 INHIBITION” (Brown University, priority 2022, published 2024).

Experiments:
[1] = test system: refractory solid tumors of multiple tissue origins; assay: Phase 1 clinical trial (NCT03678883), survival; assay type: in vivo, human
Method: Clinical specimens. Archival tumor specimens and peripheral blood samples were collected from patients enrolled in the Phase I study of elraglusib (Clinicaltrials.gov NCT03678883) who received treatment at the Lifespan Cancer Institute (Providence, RI, USA). The analysis was conducted in accordance with the Declaration of Helsinki and the International Conference on Harmonization Good Clinical
Patient plasma concentrations of cytokines from a Phase 1 clinical trial investigating elraglusib correlate with progression-free survival, overall survival, and in vivo response to therapy results. To determine the clinical relevance of the biomarkers of response identified in our murine model, the inventors next employed Luminex 200 technology to analyze plasma samples from patients with refractory solid tumors of multiple tissue origins enrolled in a Phase 1 clinical trial investigating elraglusib (NCT03678883).
TABLE 14 description. Individual patient information for human cytokine analysis. Tumor type, elraglusib dose (mg, mg/kg), number of cycles, age at enrollment, sex, race, ethnicity, median progression free survival and median overall survival data is shown (N=19).

HCT 116 GFP+ cells = assay: single-color GFP+ immune cell co-culture
Method: Single-color immune cell co-culture experiments. A total of 5000 HT-29 GFP+ or HCT 116 GFP+ cells were plated per well in a clear-bottom, black-walled 96-well tissue culture plate and were allowed to adhere overnight. Cells were subsequently treated with DMSO, 5 μM elraglusib, or 5000 TALL-104 or NK-92 cells (for an effector-to-tumor ratio of 1:1) for forty-eight hours. Nine images were taken per well at 10× magnification using a Molecular Devices ImageXpress® Confocal HT.ai High-Content Imaging System and quantified for the number of GFP+ objects using the MetaXpress (RRID: SCR_016654) software (Molecular Devices, San Jose, CA, USA). 40× images were also taken at twenty-four hours for representative images of cellular morphology changes.
To determine if pyroptosis-mediated immune cell activity played a role in the co-culture results, the inventors examined higher-power co-culture images for evidence of pyroptosis.

HT-29 = assay: microarray analysis; assay type: cell-based, human; details: 1 μM, 24 hours, vs untreated
Method: Microarrays. A total of 0.5×10^6 tumor cells (HCT-116, HT-29, KM12C) were plated in a 6-well plate and allowed to adhere overnight before 24-hour treatment, as indicated. Then, 1×10^6 immune cells (NK92, TALL-104) were plated and treated with elraglusib as indicated for twenty-four h. RNA was isolated from cell pellets in batches of six using a RNeasy Plus Mini Kit (Cat #74134, Qiagen, Hilden, Germany). Acceptable RNA concentration and quality were verified with Nanodrop and Bioanalyzer measurements. GeneChip™ Human Transcriptome Array 2.0 assays were conducted according to manufacturer instructions in two batches using randomized samples to limit batch effects (Cat #902162, Applied Biosystems, Waltham, MA, USA). Applied Biosystems Transcriptomic Analysis Console (TAC) software (RRID: SCR_016519) was used to calculate fold changes in gene expression relative to the untreated control cells. Values were considered statistically significant for p values<0.05.
The inventors then utilized microarray analysis to gain insights into gene expression changes in colorectal cancer cell lines post-GSK-3 inhibition with elraglusib. Several colorectal cancer cell lines (HCT-116, HT-29, KM12C) were treated with elraglusib at IC-50 concentrations or DMSO as vehicle control for twenty-four hours. Treated versus untreated samples were compared in triplicate using microarray analysis FIG. 10. Results were calculated using a fold change (FC) cutoff of >1.5, <−1.5, and a minimum p-value of<0.05. HCT-116 cells had 340 differentially expressed genes post-treatment. FIG. 2C.
TABLE 9 description. HT-29 CRC cell microarray analysis. HT-29 colorectal cancer cells were treated with 1 μM elraglusib for 24 hours and treated versus untreated control samples were compared in triplicate via microarray analysis (N=3). Table showing differentially expressed genes of interest with their corresponding fold changes, p values, descriptions, and functions. Genes highlighted in yellow are known p53 targets. Genes are ordered by fold change and were calculated using a fold change cutoff of >1.5, <−1.5, and a minimum p value of <0.05.

[2] = N=19 patients, multiple tumor types
[3] = Subject 05003, Colorectal, 1 mg/kg
[4] = Subject 05005, Colorectal, 1 mg/kg, 2 cycles

## Cn1cc(C2=C(c3coc4ccc(F)cc34)C(=O)NC2=O)c2cc3c(cc21)OCO3 [elraglusib]
[1]; [2]
  median overall survival: 101 days
  median progression-free survival: 75.9 days
[1]; [3]
  OS: 26 days
  PFS: 26 days
[1]; Subject 05004, Colorectal, 1 mg/kg
  PFS: 28 days
[1]; [4]
  OS: 105 days
  PFS: 99 days
[1]; Subject 05006, HCC, 2 mg/kg
  OS: 234 days
  PFS: 234 days
[1]; Subject 05009, Cholangiocarcinoma, 2 mg/kg
  PFS: 46 days
[1]; Subject 05011, NSCLC, 2 mg/kg
  OS: 39 days
  PFS: 31 days
[1]; Subject 05013, Colorectal, 3.3 mg/kg
  PFS: 130 days
[1]; Subject 05017, Colorectal, 5 mg/kg
  PFS: 83 days
[1]; Subject 05018, NSCLC, 5 mg/kg
  PFS: 41 days
[1]; Subject 05024, Appendix, 7 mg/kg
  PFS: 41 days
HCT 116 GFP+ cells; 5 μM elraglusib and NK-92 vs drug-only or immune-cell-only
  tumor cell death: increased tumor cell death
HCT 116 GFP+ cells; 5 μM elraglusib only vs DMSO only, forty-eight hours
  GFP+ cells per low-powered field: significant decrease
HCT 116 GFP+ cells; TALL-104 and 5 μM elraglusib vs TALL-104
  number of GFP+ cells per field: significant decrease
HCT 116 GFP+ cells; co-culture with TALL-104, 5 μM elraglusib
  pyroptotic events: significant increase
HT-29
  AEN Fold Change: 2.33
  AGGF1 Fold Change: −2.21
  B2M Fold Change: 2.41
  BARD1 Fold Change: −5.06
  BCCIP Fold Change: 1.61
  BCL6 Fold Change: −3.43
  BRAF Fold Change: −1.53
  BTN3A2 Fold Change: −1.58
  CCAR1 Fold Change: 1.56
  CCNE1 Fold Change: −2.6
  CCNE2 Fold Change: −5.83
  CD14 Fold Change: −2.63
  CD276 Fold Change: −1.56
  CDC25C Fold Change: −2.45
  CDC45 Fold Change: −1.75
  CDCA3 Fold Change: −1.7
  CDK1 Fold Change: −3.05
  CDK2 Fold Change: −2.23
  CDKN1A Fold Change: 1.72
  CRLF3 Fold Change: 1.5
  DYNC1H1 Fold Change: −1.7
  E2F7 Fold Change: −3.82
  E2F8 Fold Change: −3.1
  EAPP Fold Change: −1.58
  EGR1 Fold Change: 5.41
  ERBB2IP Fold Change: −1.7
  FADD Fold Change: −1.66
  FZD7 Fold Change: −1.71
  HIP1 Fold Change: −1.67
  IL17RA Fold Change: −1.68
  IL17RB Fold Change: −2.03
  ITGB6 Fold Change: −1.91
  JAK1 Fold Change: −1.58
  MAP3K1 Fold Change: −6.1
  MCIDAS Fold Change: −1.61
  MDM4 Fold Change: 1.68
  MTA3 Fold Change: −1.84
  MYD88 Fold Change: −1.68
  NCR3LG1 Fold Change: 1.78
  NFKBIA Fold Change: −5.25
  NFKBIZ Fold Change: −2.68
  PDS5B Fold Change: −1.58
  PIM1 Fold Change: −1.75
  SFN Fold Change: 1.54
  SGK1 Fold Change: −1.75
  SMAD3 Fold Change: 1.69
  SOCS7 Fold Change: 1.74
  TGFBR3 Fold Change: −4.82
  TNFRSF12A Fold Change: 1.9
  TNFSF15 Fold Change: −2.32
  TNIK Fold Change: −1.51
  TRAIP Fold Change: 1.83
  TRIB1 Fold Change: −9.14
  UHRF1 Fold Change: −1.75
